Source: US9808003B2, “Herbicidally active 2-(substituted-phenyl)-cyclopentane-1,3-dione compounds and derivatives thereof” (Syngenta Limited, priority 2013, dated 2017)

Experiments:
Assay in all cases: Test 1A glasshouse assay, post-emergence herbicidal activity
Format in all cases: in vivo
[1] = tested on: Alopecurus myosuroides (ALOMY); conditions: Alopecurus myosuroides, 312 h, application rate 250 g/ha, 13 days after application, visual (100%=total damage; 0%=no damage), read-out: Post-emergence Herbicidal Activity (% Phytotoxicity) ALOMY
Method in brief: (§1)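 Post-emergence spray at 8 d after sowing; vehicle acetone/water 50:50 + 0.5% Tween 20. Glasshouse 24/16 °C, 14 h light, 65% RH, watered 2×/day. Visual phytotoxicity (%) at 13 DAA.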

Avena fatua (AVEFA) = conditions: Avena fatua, 312 h, application rate 250 g/ha, 13 days after application, visual (100%=total damage; 0%=no damage), read-out: Post-emergence Herbicidal Activity (% Phytotoxicity) AVEFA
Method in brief: as §1

[2] = tested on: Echinochloa crus-galli (ECHCG); conditions: Echinochloa crus-galli, 312 h, application rate 250 g/ha, 13 days after application, visual (100%=total damage; 0%=no damage), read-out: Post-emergence Herbicidal Activity (% Phytotoxicity) ECHCG
Method in brief: as §1

Lolium perenne (LOLPE) = conditions: Lolium perenne, 312 h, application rate 250 g/ha, 13 days after application, visual (100%=total damage; 0%=no damage), read-out: Post-emergence Herbicidal Activity (% Phytotoxicity) LOLPE
Method in brief: as §1

## CCCCS(=O)(=O)OC1=C(c2c(C)cc(C)cc2C)C(=O)C(CCNC(=O)c2ccc(Br)cn2)C1 (centres unmarked) [Compound P18]
[1]
  pest or weed control at 250 g/ha: 100%
Avena fatua (AVEFA)
  pest or weed control at 250 g/ha: 90%
[2]
  pest or weed control at 250 g/ha: 100%
Lolium perenne (LOLPE)
  pest or weed control at 250 g/ha: 100%

## Cc1cc(C)c(C2=C(OS(=O)(=O)c3ccc(F)cc3)CC(CCNC(=O)c3ccc(Br)cn3)C2=O)c(C)c1 (centres unmarked) [Compound P19]
[1]
  pest or weed control at 250 g/ha: 100%
Avena fatua (AVEFA)
  pest or weed control at 250 g/ha: 100%
[2]
  pest or weed control at 250 g/ha: 100%
Lolium perenne (LOLPE)
  pest or weed control at 250 g/ha: 100%

## CCOCOC1=C(c2c(C)cc(C)cc2C)C(=O)C(CCNC(=O)c2ccc(Br)cn2)C1 (centres unmarked) [Compound P20]
[1]
  pest or weed control at 250 g/ha: 100%
Avena fatua (AVEFA)
  pest or weed control at 250 g/ha: 100%
[2]
  pest or weed control at 250 g/ha: 100%
Lolium perenne (LOLPE)
  pest or weed control at 250 g/ha: 100%

## Cc1cc(-n2cc(Cl)cn2)cc(C)c1C1=C(OC(=O)N2CCCC2)CC(CCNC(=O)c2ccccn2)C1=O (centres unmarked) [Compound P21]
[1]
  pest or weed control at 250 g/ha: 80%
Avena fatua (AVEFA)
  pest or weed control at 250 g/ha: 80%
[2]
  pest or weed control at 250 g/ha: 100%
Lolium perenne (LOLPE)
  pest or weed control at 250 g/ha: 70%

## Cc1cc(C)c(C2=C(OC(=O)N3CCCC3)CC(CCNC(=O)c3ccc(Br)cn3)C2=O)c(C)c1 (centres unmarked) [Compound P22]
[1]
  pest or weed control at 250 g/ha: 90%
Avena fatua (AVEFA)
  pest or weed control at 250 g/ha: 100%
[2]
  pest or weed control at 250 g/ha: 100%
Lolium perenne (LOLPE)
  pest or weed control at 250 g/ha: 100%
